According to PubChem BioAssay AID2060331 (Molecular Pharmacology Branch, DTP, NCI, 2025):

Tested on: Hs578T multi-cell spheroids, viability
Assay: Anticancer human tumor Hs578T cell line growth inhibition [IpAb];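 further: drug exposure lasted 7 days before readout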
Settings: for IC50: curve of first compound; for viability, T/C: stronger effect = lower value
From the text: Combinatorial screen of targeted agents with ipatasertib and abemaciclib in multi-cell type tumor spheroids
A high-throughput screen of multi-cell type tumor spheroids was designed to identify active combinations of targeted small molecules and ipatasertib or abemaciclib. Complex spheroids include a stromal component modeled by human endothelial cells (HUVEC) and fibroblasts modeled by human mesenchymal stem cells (MSCs). The concentration ranges selected for each drug and investigational agent were based upon clinically achievable concentrations if the clinical Cmax of the agent was known.
Compounds. The drugs and investigational agents: ipatasertib (NSC767898), abemaciclib(NSC768073), selumetinib (NSC741078), trametinib (758246), adavosertib (NSC754352), everolimus (NSC733504), sapanisertib (NSC764658), vemurafenib (NSC761431), venetoclax (NSC766270), copanlisib (NSC809693), apelisib (NSC765974), palbociblib (NSC758247), vemurafenib (NSC761431), dabrafenib (NSC764134), ravoxertinib (NSC781343), BMS-387032 (NSC767048), sotorasib (NSC818433), talazoparib (NSC767125) and afursertib (NSC778305), were obtained from the National Cancer Institute (NCI) Developmental Therapeutics Program Chemical Repository. The FDA-approved anticancer drug set is available from the NCI Developmental Therapeutics Program. […] The stock solutions were prepared in dimethyl sulfoxide (DMSO, Sigma-Aldrich, St. Louis, MO, cat. D2650) at 800-fold the tested concentration and stored at -70 degrees C prior to their use. All drugs and investigational agents were tested over a range starting from a high concentration at or near the clinical Cmax and decreasing in half-log increments. If the clinical Cmax for an agent had not been determined, the highest concentration tested was 10 microM.
NCI60 Cell Culture. NCI60 cell lines were obtained from the NCI Developmental Therapeutics Program Tumor Repository. For each lot of cells, the Repository performed Applied Biosystems AmpFLSTR Identifiler testing with PCR amplification to confirm consistency with the published Identifier STR profile for each cell line. Cells were kept in continuous culture for no more than 20 passages. The optimal seeding densities for each of the cell lines at each time point assessed were determined prior to performing the concentration response studies. Briefly, the NCI60 human tumor lines were grown as monolayers in RPMI 1640 medium supplemented with 10% FBS and 2 mmol/L L-glutamine.
An additional 9 lines were from the NCI60 cell line panel including MDA-MB-231 breast carcinoma, MDA-MB-468 breast carcinoma, MCF7 breast carcinoma, Hs578T breast carcinoma, MALME-3M melanoma, SK-MEL-2 melanoma, SK-OV-3 ovarian carcinoma, DU-145 prostate carcinoma, PC-3 prostate carcinoma, all cell lines along with major genetic alterations are listed on Table 2. Pooled donor human umbilical vein endothelial cells (HUVEC, Lonza, cat. CC-2519) and human mesenchymal stem cells (hMSC, Lonza, cat. PT-2501) were purchased from Lonza (Walkersville, MD).
PDMR cell lines were grown in complete medium (DC medium): Dulbecco's modified Eagle's medium (DMEM)/F12 supplemented with 5% fetal bovine serum (FBS), 2 mM L-glutamine, 100 U/mL penicillin and 100 µg/ml streptomycin, 0.4 µg/ml hydrocortisone, 10 ng/ml epidermal growth factor (EGF) recombinant human protein, 24 µg/mL adenine, and 0.1 mg/mL primocin. During culture from frozen stock vials, PDMR cells were cultured in the same medium containing 10 µM Y-27632 (see Table 3). The PDCs were cultured in complete DMEM/F12 media without 10 microM Y-27632 dihydrochloride for at least two passages prior to the screen. The pooled donor HUVEC and hMSC were cultured in endothelial cell growth medium 2 (PromoCell, Heidelberg, Germany, cat. C-22011) and mesenchymal stem cell growth medium 2 (PromoCell, cat. C-28009), respectively. For all experiments, HUVEC and hMSC were used at passages </=5.
[…]

[1] = second compound 0.1 µM, first compound 0.0316 µM
[2] = second compound 0.1 µM, first compound 0.1 µM
[3] = second compound 0.1 µM, first compound 0.316 µM
[4] = second compound 0.1 µM, first compound 1 µM
[5] = second compound 0.316 µM, first compound 0.0316 µM
[6] = second compound 0.316 µM, first compound 0.1 µM
[7] = second compound 0.316 µM, first compound 0.316 µM
[8] = second compound 0.316 µM, first compound 1 µM
[9] = second compound 1 µM, first compound 0.0316 µM
[10] = second compound 1 µM, first compound 0.1 µM
[11] = second compound 1 µM, first compound 0.316 µM
[12] = second compound 1 µM, first compound 1 µM
[13] = second compound 3.16 µM, first compound 0.0316 µM
[14] = second compound 3.16 µM, first compound 0.1 µM
[15] = second compound 3.16 µM, first compound 0.316 µM
[16] = second compound 3.16 µM, first compound 1 µM
[17] = second compound 10 µM, first compound 0.0316 µM
[18] = second compound 10 µM, first compound 0.1 µM
[19] = second compound 10 µM, first compound 0.316 µM
[20] = second compound 10 µM, first compound 1 µM

COc1c(OCCCN2CCOCC2)ccc2c3n(c(=NC(=O)c4cnc(N)nc4)nc12)CCN3 + CC(C)NCC(C(=O)N1CCN(c2ncnc3c2C(C)CC3O)CC1)c1ccc(Cl)cc1
IC50 (second compound 0.1 µM): 33.2 nM
IC50 (second compound 0.316 µM): 18.8 nM
IC50 (second compound 1 µM): 8.74 nM
IC50 (second compound 3.16 µM): 3.84 nM
IC50 (second compound 10 µM): < 3.16 nM
viability, T/C (second compound 0.1 µM, first compound 0.00316 µM): 90.4%
viability, T/C (second compound 0.1 µM, first compound 0.01 µM): 76.8%
viability, T/C [1]: 47.4%
viability, T/C [2]: 31%
viability, T/C [3]: 15%
viability, T/C [4]: 5.13%
viability, T/C (second compound 0.316 µM, first compound 0.00316 µM): 81.7%
viability, T/C (second compound 0.316 µM, first compound 0.01 µM): 56.4%
viability, T/C [5]: 43.5%
viability, T/C [6]: 27%
viability, T/C [7]: 14.7%
viability, T/C [8]: 5.04%
viability, T/C (second compound 1 µM, first compound 0.00316 µM): 57.7%
viability, T/C (second compound 1 µM, first compound 0.01 µM): 50%
viability, T/C [9]: 36.6%
viability, T/C [10]: 24.9%
viability, T/C [11]: 14.8%
viability, T/C [12]: 5.35%
viability, T/C (second compound 3.16 µM, first compound 0.00316 µM): 51.3%
viability, T/C (second compound 3.16 µM, first compound 0.01 µM): 44.5%
viability, T/C [13]: 39.3%
viability, T/C [14]: 25.2%
viability, T/C [15]: 15.1%
viability, T/C [16]: 5%
viability, T/C (second compound 10 µM, first compound 0.00316 µM): 45.5%
viability, T/C (second compound 10 µM, first compound 0.01 µM): 43.9%
viability, T/C [17]: 33.6%
viability, T/C [18]: 20.3%
viability, T/C [19]: 13.2%
viability, T/C [20]: 3.28%

Cc1nc(NC(=O)N2CCCC2C(N)=O)sc1-c1ccnc(C(C)(C)C(F)(F)F)c1 (stereo not given) + CC(C)NCC(C(=O)N1CCN(c2ncnc3c2C(C)CC3O)CC1)c1ccc(Cl)cc1
IC50 (second compound 0.1 µM): 1600 nM
IC50 (second compound 0.316 µM): 977 nM
IC50 (second compound 1 µM): 491 nM
IC50 (second compound 3.16 µM): 101 nM
IC50 (second compound 10 µM): < 31.6 nM
viability, T/C [1]: 96.8%
viability, T/C [2]: 87.8%
viability, T/C [3]: 70.8%
viability, T/C [4]: 57.4%
viability, T/C (second compound 0.1 µM, first compound 3.16 µM): 42.6%
viability, T/C (second compound 0.1 µM, first compound 10 µM): 11.7%
viability, T/C [5]: 80.1%
viability, T/C [6]: 71.3%
viability, T/C [7]: 57.1%
viability, T/C [8]: 48.7%
viability, T/C (second compound 0.316 µM, first compound 3.16 µM): 41%
viability, T/C (second compound 0.316 µM, first compound 10 µM): 13.9%
viability, T/C [9]: 61.8%
viability, T/C [10]: 61.4%
viability, T/C [11]: 53.9%
viability, T/C [12]: 42.3%
viability, T/C (second compound 1 µM, first compound 3.16 µM): 30.6%
viability, T/C (second compound 1 µM, first compound 10 µM): 8.93%
viability, T/C [13]: 53.6%
viability, T/C [14]: 51%
viability, T/C [15]: 44.1%
viability, T/C [16]: 35%
viability, T/C (second compound 3.16 µM, first compound 3.16 µM): 32.5%
viability, T/C (second compound 3.16 µM, first compound 10 µM): 9.58%
viability, T/C [17]: 45.3%
viability, T/C [18]: 42.1%
viability, T/C [19]: 39.2%
viability, T/C [20]: 28.8%
viability, T/C (second compound 10 µM, first compound 3.16 µM): 21.8%
viability, T/C (second compound 10 µM, first compound 10 µM): 1.81%
